Reference: patent US20230103791A1 (GLAXOSMITHKLINE INTELLECTUAL PROPERTY DEVELOPMENT LIMITED, priority 2019, published 2023)

Target: T1, human Nav1.8 (Homo sapiens, UniProt Q9Y5Y9)
T1 construct: expressed in transfected cells; host or cells: HEK293 (HEK293-Nav1.8)
Assay: Nav1.8 sodium channels assay, QPatch 48 HTX electrophysiology in HEK293-Nav1.8 cells
Type: cell-based
Conditions: Table 1; HEK293-Nav1.8, QPatch 48 HTX, half inactivation state voltage protocol (V1/2); single run or average of two or more runs; read-out: Nav1.8 pIC50 (converted)
Summary of the method: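 IC50 came from 6-8 point curves of P2 current amplitude, normalized to baseline and a positive reference, and corrected for run-down using vehicle-only wells. Automated patch clamp used HEK293-Nav1.8 (with Navβ1 and TREK1) at pH 7.4 outside and CsF-based solution inside. An 8 s inactivating step at −46 mV preceded the 0 mV test pulse, repeated at 0.07 Hz.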

T1 sequence (Q9Y5Y9 whole entry): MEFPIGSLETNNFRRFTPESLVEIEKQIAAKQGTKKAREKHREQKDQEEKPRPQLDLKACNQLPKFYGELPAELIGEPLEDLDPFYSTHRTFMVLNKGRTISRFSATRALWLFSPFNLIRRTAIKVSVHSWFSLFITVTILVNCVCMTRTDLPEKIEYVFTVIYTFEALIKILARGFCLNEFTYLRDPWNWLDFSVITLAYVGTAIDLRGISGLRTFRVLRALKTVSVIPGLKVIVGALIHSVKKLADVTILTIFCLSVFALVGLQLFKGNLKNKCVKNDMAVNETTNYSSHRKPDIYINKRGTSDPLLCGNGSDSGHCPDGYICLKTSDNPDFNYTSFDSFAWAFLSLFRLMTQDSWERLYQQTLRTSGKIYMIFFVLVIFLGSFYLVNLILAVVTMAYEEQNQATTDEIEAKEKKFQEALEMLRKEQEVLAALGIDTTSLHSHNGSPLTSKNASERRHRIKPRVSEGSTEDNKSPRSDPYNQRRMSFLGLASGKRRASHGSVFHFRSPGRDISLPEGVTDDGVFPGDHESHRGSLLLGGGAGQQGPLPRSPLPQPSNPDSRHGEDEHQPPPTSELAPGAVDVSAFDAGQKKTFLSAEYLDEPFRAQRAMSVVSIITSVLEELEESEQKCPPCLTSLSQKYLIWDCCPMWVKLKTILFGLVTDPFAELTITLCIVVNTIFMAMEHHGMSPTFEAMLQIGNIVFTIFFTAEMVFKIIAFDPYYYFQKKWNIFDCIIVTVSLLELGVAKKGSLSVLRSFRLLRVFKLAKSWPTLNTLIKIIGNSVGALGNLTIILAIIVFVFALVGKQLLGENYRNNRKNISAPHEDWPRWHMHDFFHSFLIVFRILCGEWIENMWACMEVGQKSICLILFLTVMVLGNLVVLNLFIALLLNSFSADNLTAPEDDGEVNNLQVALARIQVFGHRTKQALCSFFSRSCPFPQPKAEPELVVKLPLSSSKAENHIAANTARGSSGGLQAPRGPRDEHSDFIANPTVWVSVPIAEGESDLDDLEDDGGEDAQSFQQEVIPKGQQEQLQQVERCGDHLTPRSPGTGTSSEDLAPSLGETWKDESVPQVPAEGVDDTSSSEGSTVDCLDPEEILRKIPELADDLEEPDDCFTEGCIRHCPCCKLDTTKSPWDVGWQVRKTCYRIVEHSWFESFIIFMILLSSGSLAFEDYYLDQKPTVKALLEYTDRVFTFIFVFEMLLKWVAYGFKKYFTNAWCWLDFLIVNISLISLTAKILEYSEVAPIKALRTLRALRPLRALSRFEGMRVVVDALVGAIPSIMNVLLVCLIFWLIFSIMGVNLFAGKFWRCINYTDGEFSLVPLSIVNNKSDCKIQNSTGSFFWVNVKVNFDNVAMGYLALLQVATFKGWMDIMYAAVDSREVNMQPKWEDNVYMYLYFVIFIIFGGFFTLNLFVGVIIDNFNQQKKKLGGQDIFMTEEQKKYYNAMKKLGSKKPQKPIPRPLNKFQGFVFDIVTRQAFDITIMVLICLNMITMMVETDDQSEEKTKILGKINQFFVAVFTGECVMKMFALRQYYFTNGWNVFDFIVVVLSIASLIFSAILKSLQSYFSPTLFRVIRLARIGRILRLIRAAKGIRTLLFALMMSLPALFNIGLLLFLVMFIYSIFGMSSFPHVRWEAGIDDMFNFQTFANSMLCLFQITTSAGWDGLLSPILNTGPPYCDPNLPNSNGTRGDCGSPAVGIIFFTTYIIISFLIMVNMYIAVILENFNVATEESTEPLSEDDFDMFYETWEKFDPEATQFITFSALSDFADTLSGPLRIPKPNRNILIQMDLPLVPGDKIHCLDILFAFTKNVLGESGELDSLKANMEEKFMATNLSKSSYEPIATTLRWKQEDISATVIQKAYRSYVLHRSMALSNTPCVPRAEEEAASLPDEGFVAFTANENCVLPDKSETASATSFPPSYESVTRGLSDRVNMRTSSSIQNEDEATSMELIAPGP
T1 sequence (Q07699 19-218 partner): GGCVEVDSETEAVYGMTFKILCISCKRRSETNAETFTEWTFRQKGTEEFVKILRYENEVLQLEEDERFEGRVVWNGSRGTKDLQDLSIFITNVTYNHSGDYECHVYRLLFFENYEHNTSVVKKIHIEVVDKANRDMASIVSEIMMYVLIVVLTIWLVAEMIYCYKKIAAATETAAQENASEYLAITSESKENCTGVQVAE

Compared with `Cc1cc(F)ccc1N1CN(c2ccc(=O)[nH]c2)C(=O)c2ccc(C(F)(F)F)cc21` [drawing 261, 1-(4-fluoro-2-methylphenyl)-3-(6-oxo-1,6-dihydropyridin-3-yl)-7-(trifluoromethyl)-2,3-dihydroquinazolin-4(1H)-one], `Cc1cc(F)ccc1N1CN(c2ccc(=O)[nH]c2)C(=O)c2cc(C(F)(F)F)ccc21` [drawing 269, 1-(4-fluoro-2-methylphenyl)-3-(6-oxo-1,6-dihydropyridin-3-yl)-6-(trifluoromethyl)-2,3-dihydroquinazolin-4(1H)-one] is 2.5-fold higher in IC50: 126 nM for the first, 316 nM for the second.

Going from `O=C1c2ccc(C(F)(F)F)cc2N(c2ccc(F)cc2)CN1c1ccc(=O)[nH]c1` [drawing 262, 1-(4-fluorophenyl)-3-(6-oxo-1,6-dihydropyridin-3-yl)-7-(trifluoromethyl)-2,3-dihydroquinazolin-4(1H)-one] to `O=C1c2ccc(C(F)(F)F)cc2N(Cc2ccc(F)cc2)CN1c1ccc(=O)[nH]c1` [drawing 272, 1-(4-fluorobenzyl)-3-(6-oxo-1,6-dihydropyridin-3-yl)-7-(trifluoromethyl)-2,3-dihydroquinazolin-4(1H)-one], the IC50 rises from 398 nM to 7940 nM (20-fold).

Compared with `O=C1c2ccc(C(F)(F)F)cc2N(C2CCCCC2)CN1c1ccc(=O)[nH]c1` [drawing 263, 1-cyclohexyl-3-(6-oxo-1,6-dihydropyridin-3-yl)-7-(trifluoromethyl)-2,3-dihydroquinazolin-4(1H)-one], `Cc1cc(F)cc(C)c1N1CN(c2ccc(=O)[nH]c2)C(=O)c2ccc(C(F)(F)F)cc21` [drawing 270, 1-(4-fluoro-2,6-dimethylphenyl)-3-(6-oxo-1,6-dihydropyridin-3-yl)-7-(trifluoromethyl)-2,3-dihydroquinazolin-4(1H)-one] is 2.5-fold lower in IC50: 6310 nM for the first, 2510 nM for the second.

Going from `COc1cc(F)ccc1N1CN(c2ccc(=O)[nH]c2)C(=O)c2ccc(C(F)(F)F)cc21` [drawing 264, 1-(4-fluoro-2-methoxyphenyl)-3-(6-oxo-1,6-dihydropyridin-3-yl)-7-(trifluoromethyl)-2,3-dihydroquinazolin-4(1H)-one] to `Cc1cc(F)ccc1N1CN(c2ccc(=O)n(C)c2)C(=O)c2ccc(C(F)(F)F)cc21` [drawing 265], the IC50 rises from 316 nM to 2000 nM (6.3-fold).

First: Cc1cc(F)ccc1N1CN(c2ccc(=O)[nH]c2C)C(=O)c2cc(C(F)(F)F)cnc21 [drawing 266, 1-(4-fluoro-2-methylphenyl)-3-(2-methyl-6-oxo-1,6-dihydropyridin-3-yl)-6-(trifluoromethyl)-2,3-dihydropyrido[2,3-d]pyrimidin-4(1H)-one]
Second: Cc1cc(OC(F)(F)F)ccc1N1CN(c2ccc(=O)[nH]c2C)C(=O)c2cc(C(F)(F)F)cnc21 [drawing 274, 1-(2-methyl-4-(trifluoromethoxy)phenyl)-3-(2-methyl-6-oxo-1,6-dihydropyridin-3-yl)-6-(trifluoromethyl)-2,3-dihydropyrido[2,3-d]pyrimidin-4(1H)-one]
The IC50 of the first is 6.3-fold higher: 158 nM for the first, 25.1 nM for the second.

First: Cc1cc(F)ccc1N1CN(c2ccc(=O)[nH]c2)C(=O)c2c1cccc2C(F)(F)F [drawing 267, 1-(4-fluoro-2-methylphenyl)-3-(6-oxo-1,6-dihydropyridin-3-yl)-5-(trifluoromethyl)-2,3-dihydroquinazolin-4(1H)-one]
Second: Cc1cc(F)ccc1N1CN(c2ccc(=O)[nH]c2C)C(=O)c2ccc(C(F)(F)F)cc21 [drawing 268, 1-(4-fluoro-2-methylphenyl)-3-(2-methyl-6-oxo-1,6-dihydropyridin-3-yl)-7-(trifluoromethyl)-2,3-dihydroquinazolin-4(1H)-one]
The IC50 of the first is 130-fold higher: 2510 nM for the first, 20 nM for the second.

First: Cc1cc(F)ccc1N1CN(c2c[nH]c(=O)c(C)c2)C(=O)c2ccc(C(F)(F)F)cc21 [drawing 271, 1-(4-fluoro-2-methylphenyl)-3-(5-methyl-6-oxo-1,6-dihydropyridin-3-yl)-7-(trifluoromethyl)-2,3-dihydroquinazolin-4(1H)-one]
Second: Cc1cc(=O)[nH]cc1N1CN(c2ccc(F)cc2C)c2cc(C(F)(F)F)ccc2C1=O [drawing 273, 1-(4-fluoro-2-methylphenyl)-3-(4-methyl-6-oxo-1,6-dihydropyridin-3-yl)-7-(trifluoromethyl)-2,3-dihydroquinazolin-4(1H)-one]
The IC50 of the first is 1.6-fold higher: 631 nM for the first, 398 nM for the second.

Same assay, conditions: at least one set of experimental runs; read-out: average pIC50 value against Nav1.8 (converted)

First: Cc1[nH]c(=O)ccc1N1CN([C@H]2CCOC[C@H]2C)c2cc(C(F)(F)F)ccc2C1=O [Example 281, 3-(2-Methyl-6-oxo-1,6-dihydropyridin-3-yl)-1-((3S,4S)-3-methyltetrahydro-2H-pyran-4-yl)-7-(trifluoromethyl)-2,3-dihydroquinazolin-4(1H)-one]
Second: Cc1[nH]c(=O)ccc1N1CN([C@@H]2CCOC[C@@H]2C)c2cc(C(F)(F)F)ccc2C1=O [Example 282, 3-(2-Methyl-6-oxo-1,6-dihydropyridin-3-yl)-1-((3R,4R)-3-methyltetrahydro-2H-pyran-4-yl)-7-(trifluoromethyl)-2,3-dihydroquinazolin-4(1H)-one]
The IC50 of the first is lower: 126 to 631 nM for the first, 794 to 7940 nM for the second.

First: Cc1[nH]c(=O)ccc1N1CN([C@H]2CCOC[C@@H]2C)c2cc(C(F)(F)F)ccc2C1=O [Example 283, 3-(2-Methyl-6-oxo-1,6-dihydropyridin-3-yl)-1-((3R,4S)-3-methyltetrahydro-2H-pyran-4-yl)-7-(trifluoromethyl)-2,3-dihydroquinazolin-4(1H)-one]
Second: Cc1[nH]c(=O)ccc1N1CN([C@@H]2CCOC[C@H]2C)c2cc(C(F)(F)F)ccc2C1=O [Example 284, 3-(2-Methyl-6-oxo-1,6-dihydropyridin-3-yl)-1-((3S,4R)-3-methyltetrahydro-2H-pyran-4-yl)-7-(trifluoromethyl)-2,3-dihydroquinazolin-4(1H)-one]
The IC50 of the first is lower: 126 to 631 nM for the first, 794 to 7940 nM for the second.

First: Cc1cc(F)ccc1N1CN([C@H]2CCC(=O)N[C@H]2C)C(=O)c2ccc(C(F)(F)F)cc21 [Example 287, 1-(4-Fluoro-2-methylphenyl)-3-((2S,3S)-2-methyl-6-oxopiperidin-3-yl)-7-(trifluoromethyl)-2,3-dihydroquinazolin-4(1H)-one]
Second: Cc1cc(F)ccc1N1CN([C@@H]2CCC(=O)N[C@@H]2C)C(=O)c2ccc(C(F)(F)F)cc21 [Example 288, 1-(4-Fluoro-2-methylphenyl)-3-((2R,3R)-2-methyl-6-oxopiperidin-3-yl)-7-(trifluoromethyl)-2,3-dihydroquinazolin-4(1H)-one]
The IC50 of the first is higher: 794 to 7940 nM for the first, 126 to 631 nM for the second.

First: Cc1cc(F)ccc1N1CN(c2ccc(=O)[nH]c2C)C(=O)c2cc(C(F)(F)F)ccc21 [Example 297, 1-(4-fluoro-2-methylphenyl)-3-(2-methyl-6-oxo-1,6-dihydropyridin-3-yl)-6-(trifluoromethyl)-2,3-dihydroquinazolin-4(1H)-one]
Second: Cc1cc(F)ccc1N1CN(c2ccc(=O)[nH]c2C)C(=O)c2cc(C(F)(F)F)cnc21 [Example 299, 1-(4-fluoro-2-methylphenyl)-3-(2-methyl-6-oxo-1,6-dihydropyridin-3-yl)-6-(trifluoromethyl)-2,3-dihydropyrido[2,3-d]pyrimidin-4(1H)-one]
The IC50 of the first is lower: no more than 100 nM for the first, 126 to 631 nM for the second.

Compound `Cc1cc(OC(F)(F)F)ccc1N1CN(c2ccc(=O)[nH]c2C)C(=O)c2cc(C(F)(F)F)cnc21` [Example 298, 1-(2-methyl-4-(trifluoromethoxy)phenyl)-3-(2-methyl-6-oxo-1,6-dihydropyridin-3-yl)-6-(trifluoromethyl)-2,3-dihydropyrido[2,3-d]pyrimidin-4(1H)-one] has an IC50 of no more than 100 nM.
